We go through 15 compounds from article PMC8528861, “Structural and functional analysis of target recognition by the lymphocyte adaptor protein LNK” (Nature Communications, 2021).

Where a SMILES comes first, the peptide text is derived from it. [ ]: non-standard residue; d: D form. pY = N[C@@H](Cc1ccc(OP(=O)(O)O)cc1)C(=O)O

The first assay deals with T1, LNK SH2 domain (Mus musculus, UniProt O09039).
T1 construct: DNA encoding the mouse LNK SH2 domain (residues 324–446) and an N-terminal NusA; NusA (N, cleaved yes); made in house; host or cells: E. coli (tuner (DE3), BL21(DE3) or C43)
T1 sequence (O09039 324-446): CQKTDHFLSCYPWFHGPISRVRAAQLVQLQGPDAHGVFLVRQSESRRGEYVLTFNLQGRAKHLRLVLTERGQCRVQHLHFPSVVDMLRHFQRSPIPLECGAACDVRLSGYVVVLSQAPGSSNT
As to the kind of experiment: SPR competition assay (immobilised IL6ST pY757 peptide).
Settings: not given
In kind it is binding. Here is the method: SH2 domains typically bind ligands with a specific preference for amino acids at the −2 to +5 positions, relative to phosphotyrosine. […] To determine the contribution of individual residues, we made a series of mutations within the JAK2 phosphopeptide, and measured their affinity for the LNK SH2 domain via a surface plasmon resonance (SPR) competition assay (Fig. 3). The LNK SH2 domain was incubated with increasing concentrations of mutant JAK2 pY813 peptides before being passed over a chip coated with an immobilised low affinity phosphopeptide derived from a site on the intracellular domain of the IL-6 receptor, IL6ST. […] The +2 residue was not mutated as the structure indicates its sidechain points towards solvent.
The LNK SH2 domain has been proposed to interact with a suite of phosphorylated sites on various signalling proteins[16]–[19],[32]. […] In addition, binding to the activation loops of JAK2 and IRK, and pY785 of JAK3 were also examined. […] Given that SH2 domains will bind to most phosphorylated sequences to some degree, in line with the literature on SH2 domains and their targets[33] we applied a threshold cut-off of 2000 nM, where an IC50 over this value indicates a physiologically irrelevant interaction.
SPR competition assays were performed on either a Biacore 4000 or 200 (GE Healthcare) in 10 mM HEPES (pH 7.4), 150 mM NaCl, 3.4 mM EDTA, 0.005% Tween 20 using a streptavidin coated chip and were regenerated in 50 mM NaOH, 1 M NaCl. A biotinylated peptide representing the IL6ST pY757 sequence was immobilised to the chip by passing over 1 μg/mL of peptide dissolved in 10 mM HEPES pH 7.4, 150 mM NaCl, 3.4 mM EDA, 0.005% Tween 20. 0.1–0.5 μM of WT LNK SH2 domain was pre-incubated with 2, 1, 0.5, 0.25, 0.125 or 0 mM phosphopeptides before being flowed over the chip for 240–720 seconds at 10–30 μL/min. Data was analysed using Prism, the response of LNK in the presence of the peptide was normalised to an LNK only control and then fitted as an IC50 curve via non-linear regression.
As to `CC(C)C[C@H](NC(=O)[C@H](C)NC(=O)[C@H](C)NC(=O)[C@@H](NC(=O)[C@H](CC(=O)O)NC(=O)[C@H](CCCNC(=N)N)NC(=O)[C@H](CC(C)C)NC(=O)[C@H](Cc1ccc(OP(=O)(O)O)cc1)NC(=O)[C@H](CCC(N)=O)NC(=O)CNC(=O)[C@H](CC(C)C)NC(=O)[C@@H](N)C(C)C)[C@@H](C)O)C(=O)O` [MPL pY552] (H-VLGQ[pY]LRDTAAL-OH; N-terminus and C-terminus assumed), the IC50 is above 10 µM. `CC(C)C[C@H](NC(=O)[C@@H]1CCCN1C(=O)[C@H](CC(C)C)NC(=O)[C@H](Cc1ccc(OP(=O)(O)O)cc1)NC(=O)[C@H](CO)NC(=O)[C@H](Cc1c[nH]cn1)NC(=O)[C@H](CC(N)=O)NC(=O)[C@H](C)N)C(=O)N[C@@H](CO)C(=O)N[C@@H](Cc1ccc(O)cc1)C(=O)N[C@@H](Cc1c[nH]c2ccccc12)C(=O)N[C@@H](CCC(N)=O)C(=O)O` [MPL pY626] (H-ANHS[pY]LPLSYWQ-OH) came in with an IC50 of 4.89 µM.

Staying with this assay, now noted: mutant vs WT JAK2 pY813 peptide.
Take `CC(C)C[C@H](NC(=O)[C@H](CCCNC(=N)N)NC(=O)[C@H](Cc1ccc(OP(=O)(O)O)cc1)NC(=O)[C@H](CC(=O)O)NC(=O)[C@@H]1CCCN1C(=O)[C@@H](NC(=O)[C@@H](N)Cc1ccccc1)[C@@H](C)O)C(=O)N[C@@H](CC(C)C)C(=O)N[C@H](C(=O)N[C@@H](CCC(=O)O)C(=O)N[C@@H](CC(N)=O)C(=O)N[C@@H](CC(=O)O)C(=O)O)[C@@H](C)O` [+1R] (H-FTPD[pY]RLLTEND-OH): the “fold decrease in affinity” value is listed as above 80 fold. With `CC(C)C[C@H](NC(=O)[C@H](CCC(=O)O)NC(=O)[C@H](Cc1ccc(OP(=O)(O)O)cc1)NC(=O)[C@H](CC(=O)O)NC(=O)[C@@H]1CCCN1C(=O)[C@@H](NC(=O)[C@@H](N)Cc1ccccc1)[C@@H](C)O)C(=O)N[C@@H](Cc1ccccc1)C(=O)N[C@H](C(=O)N[C@@H](CCC(=O)O)C(=O)N[C@@H](CC(N)=O)C(=O)N[C@@H](CC(=O)O)C(=O)O)[C@@H](C)O` [+3F] (H-FTPD[pY]ELFTEND-OH; N-terminus and C-terminus assumed), the “fold decrease in affinity” value was ~ 25 fold.

Staying with this assay, now noted: phosphopeptide competition assay; mean of at least two technical replicates from two, three or four independent experiments; read-out: IC50.
Turning to `CC(C)C[C@H](NC(=O)[C@H](CS)NC(=O)CNC(=O)[C@H](CC(N)=O)NC(=O)[C@H](CCC(N)=O)NC(=O)[C@H](Cc1ccc(OP(=O)(O)O)cc1)NC(=O)[C@H](CC(C)C)NC(=O)[C@H](Cc1c[nH]c2ccccc12)NC(=O)[C@H](CC(C)C)NC(=O)[C@@H](N)CCC(N)=O)C(=O)N[C@@H](Cc1c[nH]c2ccccc12)C(=O)N[C@@H](Cc1c[nH]c2ccccc12)C(=O)O` [EPOR pY309] (H-QLWL[pY]QNGCLWW-OH; N-terminus and C-terminus assumed), the IC50 was above 10 µM. Regarding `NC(=O)C[C@H](NC(=O)[C@H](CCC(=O)O)NC(=O)[C@H](Cc1ccc(O)cc1)NC(=O)[C@@H]1CCCN1C(=O)[C@H](CC(N)=O)NC(=O)[C@H](CO)NC(=O)[C@H](Cc1ccc(OP(=O)(O)O)cc1)NC(=O)[C@@H]1CCCN1C(=O)CNC(=O)[C@H](CC(=O)O)NC(=O)[C@@H](N)CO)C(=O)N[C@@H](CO)C(=O)O` [EPOR pY485] (H-SDGP[pY]SNPYENS-OH; N-terminus and C-terminus assumed), the IC50 was above 10 µM.

As to `CSCC[C@H](NC(=O)[C@H](CCC(N)=O)NC(=O)[C@H](CC(C)C)NC(=O)[C@H](CCC(N)=O)NC(=O)[C@H](CO)NC(=O)[C@H](CCC(=O)O)NC(=O)[C@H](Cc1ccc(OP(=O)(O)O)cc1)NC(=O)[C@H](CCCNC(=N)N)NC(=O)[C@H](Cc1ccccc1)NC(=O)[C@H](CCC(N)=O)NC(=O)[C@H](CCCCN)NC(=O)[C@H](CCCCN)NC(=O)[C@@H](N)Cc1ccc(O)cc1)C(=O)O` [FLT3 pY572] (H-YKKQFR[pY]ESQLQM-OH; N-terminus and C-terminus assumed), the IC50 was above 10 µM. The same measure, in the same setting: with `C[C@@H](O)[C@H](NC(=O)[C@@H](N)CCC(=O)O)C(=O)N[C@@H](CC(=O)O)C(=O)N[C@@H](Cc1ccc(OP(=O)(O)O)cc1)C(=O)N[C@@H](Cc1ccc(OP(=O)(O)O)cc1)C(=O)N[C@@H](CCCNC(=N)N)C(=O)N[C@@H](CCCCN)C(=O)NCC(=O)NCC(=O)N[C@@H](CCCCN)C(=O)NCC(=O)O` [IRK pY1445/pY1446] (H-ETD[pY][pY]RKGGKG-OH; N-terminus and C-terminus assumed) the figure was above 10 µM.

In the case of `CC[C@H](C)[C@H](NC(=O)[C@H](C)N)C(=O)N[C@@H](CCC(=O)O)C(=O)N[C@H](C(=O)N[C@@H](CC(=O)O)C(=O)N[C@@H](CCCCN)C(=O)N[C@@H](CCC(=O)O)C(=O)N[C@@H](Cc1ccc(OP(=O)(O)O)cc1)C(=O)N[C@@H](Cc1ccc(OP(=O)(O)O)cc1)C(=O)N[C@@H](CCCCN)C(=O)N[C@H](C(=O)N[C@@H](CCCCN)C(=O)N[C@@H](CCC(=O)O)C(=O)N1CCC[C@H]1C(=O)NCC(=O)O)C(C)C)[C@@H](C)O` [JAK2 pY1007/pY1008] (H-AIETDKE[pY][pY]KVKEPG-OH; N-terminus and C-terminus assumed), the IC50 was above 10 µM. Take `CC[C@H](C)[C@H](NC(=O)[C@H](C)N)C(=O)N[C@@H](CCC(=O)O)C(=O)N[C@H](C(=O)N[C@@H](CC(=O)O)C(=O)N[C@@H](CCCCN)C(=O)N[C@@H](CCC(=O)O)C(=O)N[C@@H](Cc1ccc(OP(=O)(O)O)cc1)C(=O)N[C@@H](Cc1ccc(O)cc1)C(=O)N[C@@H](CCCCN)C(=O)N[C@H](C(=O)N[C@@H](CCCCN)C(=O)N[C@@H](CCC(=O)O)C(=O)N1CCC[C@H]1C(=O)NCC(=O)O)C(C)C)[C@@H](C)O` [JAK2 pY1007] (H-AIETDKE[pY]YKVKEPG-OH; N-terminus and C-terminus assumed): the IC50 was above 10 µM. As to `CSCC[C@H](NC(=O)[C@H](CC(=O)O)NC(=O)[C@H](CCC(N)=O)NC(=O)[C@H](C)N)C(=O)N[C@@H](Cc1ccc(OP(=O)(O)O)cc1)C(=O)N[C@@H](CCCNC(=N)N)C(=O)N[C@@H](CCCNC(=N)N)C(=O)N[C@@H](CC(C)C)C(=O)N[C@@H](CCC(N)=O)C(=O)N1CCC[C@H]1C(=O)N[C@@H](CO)C(=O)N[C@@H](CS)C(=O)O` [MPL pY591] (H-AQDM[pY]RRLQPSC-OH; N-terminus and C-terminus assumed), the IC50 was above 10 µM. In the case of `CC(C)C[C@H](NC(=O)[C@@H]1CCCN1C(=O)[C@@H](N)CC(C)C)C(=O)N[C@@H](CO)C(=O)N[C@@H](Cc1ccc(OP(=O)(O)O)cc1)C(=O)N[C@@H](Cc1c[nH]c2ccccc12)C(=O)N[C@@H](CCC(N)=O)C(=O)N[C@@H](CCC(N)=O)C(=O)N1CCC[C@H]1C(=O)O` [MPL pY631] (H-LPLS[pY]WQQP-OH; N-terminus and C-terminus assumed), the IC50 was above 10 µM. In the case of `CC[C@H](C)[C@H](NC(=O)[C@H](Cc1ccc(OP(=O)(O)O)cc1)NC(=O)[C@H](CCC(=O)O)NC(=O)[C@H](Cc1c[nH]cn1)NC(=O)CN)C(=O)N[C@@H](Cc1ccc(O)cc1)C(=O)N[C@H](C(=O)N[C@@H](CC(=O)O)C(=O)N1CCC[C@H]1C(=O)O)C(C)C` [PDGFR pY572] (H-GHE[pY]IYVDP-OH), the IC50 was found to be 3.81 µM. Same read-out and setting: with `CC(C)C[C@H](NC(=O)[C@H](CC(N)=O)NC(=O)[C@@H](NC(=O)[C@H](Cc1ccc(OP(=O)(O)O)cc1)NC(=O)[C@H](CC(=O)O)NC(=O)[C@H](CCCNC(=N)N)NC(=O)[C@@H](N)CCC(=O)O)[C@@H](C)O)C(=O)N1CCC[C@H]1C(=O)N[C@@H](CO)C(=O)O` [c-FMS pY923] (H-ERD[pY]TNLPS-OH; N-terminus and C-terminus assumed) the figure was above 10 µM; with `CC[C@H](C)[C@H](NC(=O)[C@H](Cc1ccc(O)cc1)NC(=O)[C@@H](NC(=O)[C@H](Cc1ccc(OP(=O)(O)O)cc1)NC(=O)[C@H](CC(N)=O)NC(=O)[C@H](CC(N)=O)NC(=O)CN)C(C)C)C(=O)N[C@@H](CC(=O)O)C(=O)N1CCC[C@H]1C(=O)O` [c-KIT pY568] (H-GNN[pY]VYIDP-OH), 1.93 µM.

The IC50 is the concentration that inhibits the measured activity by half.
